Data: article PMC6199744, “Development of Chemical Proteomics for the Folateome and Analysis of the Kinetoplastid Folateome” (ACS Infectious Diseases, 2018)
Read-outs that look alike come from different tables or passages of the source.

What was measured:
Type in all cases: binding
[1] = target: T1, HeLa cell extract proteins (Homo sapiens, UniProt Q00610)
T1 construct: endogenous in cells; host or cells: HeLa cell extract

[2] = target: T2, HeLa cell extract proteins (Homo sapiens, UniProt Q93100)
T2 construct: endogenous in cells; host or cells: HeLa cell extract
T2 sequence (Q93100 1-1093): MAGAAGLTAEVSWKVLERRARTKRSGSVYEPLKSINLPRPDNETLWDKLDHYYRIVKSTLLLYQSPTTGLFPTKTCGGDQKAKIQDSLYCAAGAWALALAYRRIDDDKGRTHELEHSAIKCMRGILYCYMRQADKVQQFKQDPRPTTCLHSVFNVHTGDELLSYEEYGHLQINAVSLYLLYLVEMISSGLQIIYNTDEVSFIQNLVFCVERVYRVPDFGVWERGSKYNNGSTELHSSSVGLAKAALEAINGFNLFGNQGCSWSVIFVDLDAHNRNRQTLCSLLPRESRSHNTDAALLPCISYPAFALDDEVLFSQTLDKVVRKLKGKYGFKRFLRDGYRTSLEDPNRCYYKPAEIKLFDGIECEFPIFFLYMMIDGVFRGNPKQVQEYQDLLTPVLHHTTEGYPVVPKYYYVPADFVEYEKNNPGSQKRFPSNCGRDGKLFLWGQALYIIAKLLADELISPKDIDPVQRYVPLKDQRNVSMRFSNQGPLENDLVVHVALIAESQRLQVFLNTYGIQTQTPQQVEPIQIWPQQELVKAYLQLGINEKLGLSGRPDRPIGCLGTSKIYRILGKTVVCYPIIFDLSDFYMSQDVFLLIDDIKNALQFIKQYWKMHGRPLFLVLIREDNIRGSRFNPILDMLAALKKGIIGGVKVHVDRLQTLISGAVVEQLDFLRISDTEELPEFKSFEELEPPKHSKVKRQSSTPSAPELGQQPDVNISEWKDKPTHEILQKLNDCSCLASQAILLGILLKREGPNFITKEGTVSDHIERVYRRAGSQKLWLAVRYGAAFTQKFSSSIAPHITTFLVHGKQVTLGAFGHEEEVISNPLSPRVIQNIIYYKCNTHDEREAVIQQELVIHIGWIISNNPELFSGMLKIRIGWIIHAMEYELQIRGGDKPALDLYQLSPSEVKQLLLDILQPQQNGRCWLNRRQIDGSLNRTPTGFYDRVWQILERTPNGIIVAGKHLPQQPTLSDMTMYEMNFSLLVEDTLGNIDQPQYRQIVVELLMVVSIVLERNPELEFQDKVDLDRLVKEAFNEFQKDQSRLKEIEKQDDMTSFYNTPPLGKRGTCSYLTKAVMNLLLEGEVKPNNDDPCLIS

[3] = target: T3, HeLa cell extract proteins (Homo sapiens, UniProt P14678)
T3 construct: endogenous in cells; host or cells: HeLa cell extract

[4] = target: T4, HeLa cell extract proteins (Homo sapiens, UniProt P22314)
T4 construct: endogenous in cells; host or cells: HeLa cell extract
T4 sequence (P22314 1-1058): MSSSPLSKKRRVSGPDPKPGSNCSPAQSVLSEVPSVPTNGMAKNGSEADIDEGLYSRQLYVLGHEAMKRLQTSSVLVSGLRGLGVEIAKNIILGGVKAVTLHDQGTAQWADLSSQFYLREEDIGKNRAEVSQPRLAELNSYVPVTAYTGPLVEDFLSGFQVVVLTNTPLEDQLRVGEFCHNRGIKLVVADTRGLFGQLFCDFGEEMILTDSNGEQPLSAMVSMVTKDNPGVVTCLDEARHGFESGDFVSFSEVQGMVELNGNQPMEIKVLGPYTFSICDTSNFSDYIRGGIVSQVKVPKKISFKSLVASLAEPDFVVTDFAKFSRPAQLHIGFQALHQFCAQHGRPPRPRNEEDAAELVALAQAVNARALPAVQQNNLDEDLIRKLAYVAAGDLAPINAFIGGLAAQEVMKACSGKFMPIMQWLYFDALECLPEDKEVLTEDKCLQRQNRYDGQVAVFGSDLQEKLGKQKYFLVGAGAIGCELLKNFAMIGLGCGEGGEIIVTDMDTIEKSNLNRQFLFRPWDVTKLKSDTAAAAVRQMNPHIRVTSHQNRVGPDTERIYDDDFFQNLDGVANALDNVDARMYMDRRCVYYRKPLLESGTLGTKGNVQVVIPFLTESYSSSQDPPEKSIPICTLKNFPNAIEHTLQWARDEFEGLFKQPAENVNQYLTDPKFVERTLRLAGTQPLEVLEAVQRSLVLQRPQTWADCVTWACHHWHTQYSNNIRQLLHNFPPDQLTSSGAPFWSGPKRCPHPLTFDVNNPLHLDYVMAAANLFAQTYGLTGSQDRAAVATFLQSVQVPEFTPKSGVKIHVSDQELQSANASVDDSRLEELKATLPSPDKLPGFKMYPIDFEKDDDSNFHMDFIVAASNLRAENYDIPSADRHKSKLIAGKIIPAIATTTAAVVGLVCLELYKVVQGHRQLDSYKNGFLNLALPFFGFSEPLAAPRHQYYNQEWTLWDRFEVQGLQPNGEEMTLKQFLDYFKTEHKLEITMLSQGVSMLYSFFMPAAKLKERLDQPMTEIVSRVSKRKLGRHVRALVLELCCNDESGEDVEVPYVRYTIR

[5] = target: T5, HeLa cell extract proteins (Homo sapiens, UniProt P08758)
T5 construct: endogenous in cells; host or cells: HeLa cell extract
T5 sequence (P08758 1-320): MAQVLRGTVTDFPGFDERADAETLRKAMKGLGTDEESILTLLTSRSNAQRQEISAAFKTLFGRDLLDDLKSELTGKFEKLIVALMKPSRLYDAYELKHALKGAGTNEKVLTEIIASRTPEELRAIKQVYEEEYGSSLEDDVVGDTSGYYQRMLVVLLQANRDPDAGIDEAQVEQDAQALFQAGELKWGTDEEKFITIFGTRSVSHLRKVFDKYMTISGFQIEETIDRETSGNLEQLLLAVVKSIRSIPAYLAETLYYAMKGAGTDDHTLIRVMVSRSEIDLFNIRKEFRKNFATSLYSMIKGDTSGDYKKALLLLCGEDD

[6] = target: T6, HeLa cell extract proteins (Homo sapiens, UniProt P62333)
T6 construct: endogenous in cells; host or cells: HeLa cell extract

[7] = target: T7, HeLa cell extract proteins (Homo sapiens, UniProt Q16531)
T7 construct: endogenous in cells; host or cells: HeLa cell extract

[8] = HeLa, protein CLTC (ISOFORM 1 OF CLATHRIN HEAVY CHAIN 1)
[9] = HeLa, protein ANXA5 (ANNEXIN A5.)

T6 sequence (P62333 whole entry): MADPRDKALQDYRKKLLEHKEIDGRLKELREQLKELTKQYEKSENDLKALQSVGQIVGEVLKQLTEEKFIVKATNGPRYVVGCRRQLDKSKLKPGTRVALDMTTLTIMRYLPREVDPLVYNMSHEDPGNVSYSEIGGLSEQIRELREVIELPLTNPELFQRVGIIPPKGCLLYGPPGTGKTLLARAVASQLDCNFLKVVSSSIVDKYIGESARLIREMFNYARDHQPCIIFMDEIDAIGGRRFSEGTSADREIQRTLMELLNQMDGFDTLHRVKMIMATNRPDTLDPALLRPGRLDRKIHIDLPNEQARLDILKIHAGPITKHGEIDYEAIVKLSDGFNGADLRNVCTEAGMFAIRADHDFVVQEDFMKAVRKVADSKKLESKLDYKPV
T1 sequence (Q00610 whole entry): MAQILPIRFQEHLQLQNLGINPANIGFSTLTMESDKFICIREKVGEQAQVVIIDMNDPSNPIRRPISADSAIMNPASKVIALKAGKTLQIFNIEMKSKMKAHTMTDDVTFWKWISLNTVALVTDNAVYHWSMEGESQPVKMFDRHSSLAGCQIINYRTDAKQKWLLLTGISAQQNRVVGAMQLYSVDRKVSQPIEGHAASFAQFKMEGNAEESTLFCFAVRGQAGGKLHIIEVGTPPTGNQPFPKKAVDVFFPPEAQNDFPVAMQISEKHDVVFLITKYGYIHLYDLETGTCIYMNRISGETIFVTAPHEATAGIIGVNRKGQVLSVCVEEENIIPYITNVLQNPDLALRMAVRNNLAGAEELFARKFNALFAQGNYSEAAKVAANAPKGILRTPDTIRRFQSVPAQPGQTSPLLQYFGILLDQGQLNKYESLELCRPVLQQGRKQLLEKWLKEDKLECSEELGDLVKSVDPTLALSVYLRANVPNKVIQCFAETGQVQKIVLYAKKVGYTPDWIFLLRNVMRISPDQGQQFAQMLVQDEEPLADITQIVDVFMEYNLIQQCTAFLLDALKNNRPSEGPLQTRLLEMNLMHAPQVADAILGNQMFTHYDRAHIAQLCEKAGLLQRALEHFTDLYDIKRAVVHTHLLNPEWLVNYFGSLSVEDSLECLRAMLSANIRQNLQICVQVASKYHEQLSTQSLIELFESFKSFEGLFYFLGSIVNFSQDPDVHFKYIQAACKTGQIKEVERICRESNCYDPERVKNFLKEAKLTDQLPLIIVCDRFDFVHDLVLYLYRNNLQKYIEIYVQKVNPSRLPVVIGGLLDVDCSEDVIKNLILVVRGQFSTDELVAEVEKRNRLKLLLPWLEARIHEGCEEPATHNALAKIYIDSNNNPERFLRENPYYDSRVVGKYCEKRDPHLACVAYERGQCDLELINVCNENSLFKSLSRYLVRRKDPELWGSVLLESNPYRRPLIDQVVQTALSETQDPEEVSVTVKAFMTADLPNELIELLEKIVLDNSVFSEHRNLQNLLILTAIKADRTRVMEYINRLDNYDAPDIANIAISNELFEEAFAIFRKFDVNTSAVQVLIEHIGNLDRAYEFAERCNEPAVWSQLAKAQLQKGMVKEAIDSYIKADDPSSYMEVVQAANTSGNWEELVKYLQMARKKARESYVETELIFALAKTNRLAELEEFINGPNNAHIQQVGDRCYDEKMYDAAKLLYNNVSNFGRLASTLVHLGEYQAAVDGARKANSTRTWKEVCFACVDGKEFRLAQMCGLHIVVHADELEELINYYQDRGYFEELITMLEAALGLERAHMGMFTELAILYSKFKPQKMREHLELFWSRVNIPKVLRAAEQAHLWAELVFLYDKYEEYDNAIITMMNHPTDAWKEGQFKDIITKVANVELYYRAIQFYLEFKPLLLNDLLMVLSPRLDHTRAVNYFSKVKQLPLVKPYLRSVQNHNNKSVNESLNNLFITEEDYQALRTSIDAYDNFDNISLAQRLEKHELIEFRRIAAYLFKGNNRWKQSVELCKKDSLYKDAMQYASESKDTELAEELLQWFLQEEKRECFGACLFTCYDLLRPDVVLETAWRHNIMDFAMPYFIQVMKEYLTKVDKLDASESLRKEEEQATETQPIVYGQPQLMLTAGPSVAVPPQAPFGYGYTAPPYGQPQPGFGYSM
T7 sequence (Q16531 whole entry): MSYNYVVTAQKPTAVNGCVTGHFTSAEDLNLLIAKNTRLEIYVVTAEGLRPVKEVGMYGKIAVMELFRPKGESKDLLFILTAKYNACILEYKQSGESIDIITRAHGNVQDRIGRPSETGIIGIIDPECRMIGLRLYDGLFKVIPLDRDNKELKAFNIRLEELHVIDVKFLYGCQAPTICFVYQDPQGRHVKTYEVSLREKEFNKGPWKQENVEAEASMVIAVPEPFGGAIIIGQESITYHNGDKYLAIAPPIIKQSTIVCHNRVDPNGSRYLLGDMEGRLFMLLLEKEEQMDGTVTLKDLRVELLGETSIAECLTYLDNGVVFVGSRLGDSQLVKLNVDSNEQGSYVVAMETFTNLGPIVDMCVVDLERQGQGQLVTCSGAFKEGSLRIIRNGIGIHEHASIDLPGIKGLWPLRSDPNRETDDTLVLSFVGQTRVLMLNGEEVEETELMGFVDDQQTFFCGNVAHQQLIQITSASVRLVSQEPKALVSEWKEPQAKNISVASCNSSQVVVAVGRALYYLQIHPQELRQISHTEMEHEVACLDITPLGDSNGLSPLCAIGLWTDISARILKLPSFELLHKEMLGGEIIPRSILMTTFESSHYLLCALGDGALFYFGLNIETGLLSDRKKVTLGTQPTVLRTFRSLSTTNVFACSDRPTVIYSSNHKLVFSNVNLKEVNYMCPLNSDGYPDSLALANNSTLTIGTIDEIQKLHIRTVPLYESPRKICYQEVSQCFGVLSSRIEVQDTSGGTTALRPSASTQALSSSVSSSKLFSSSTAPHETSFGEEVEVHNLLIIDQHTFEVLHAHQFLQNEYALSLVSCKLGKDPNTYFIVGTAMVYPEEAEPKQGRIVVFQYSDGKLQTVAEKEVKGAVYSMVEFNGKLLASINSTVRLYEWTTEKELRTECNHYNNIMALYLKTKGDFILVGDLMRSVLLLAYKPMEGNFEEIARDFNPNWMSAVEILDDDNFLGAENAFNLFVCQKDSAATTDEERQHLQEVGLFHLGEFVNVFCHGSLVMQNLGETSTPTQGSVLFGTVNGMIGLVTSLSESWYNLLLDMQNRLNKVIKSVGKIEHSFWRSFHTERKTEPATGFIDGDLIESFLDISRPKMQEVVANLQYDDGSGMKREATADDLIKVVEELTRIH

Structure (SMILES) | fold changes relative to vehicle control [1, 8] | fold changes relative to vehicle control ([2]; HeLa, protein PHKB) | fold changes relative to vehicle control ([3]; HeLa, captured protein SNRPB) | fold changes relative to vehicle control ([4]; HeLa, protein UBA1) | fold changes relative to vehicle control ([5]; HeLa, protein ANXA5) | fold changes relative to vehicle control ([6]; protein PSMC6, HeLa) | fold changes relative to vehicle control ([7]; HeLa, protein DDB1) | fold changes relative to vehicle control ([1]; protein CLTC, HeLa) | fold changes relative to vehicle control ([2]; captured protein PHKB, HeLa) | fold changes relative to vehicle control ([3]; protein SNRPB, HeLa) | fold changes relative to vehicle control ([4]; protein UBA1, HeLa) | fold changes relative to vehicle control [5, 9] | fold changes relative to vehicle control [1] | fold changes relative to vehicle control [2] | fold changes relative to vehicle control [3] | fold changes relative to vehicle control [4] | fold changes relative to vehicle control [5] | fold changes relative to vehicle control [6] | fold changes relative to vehicle control [7]
Nc1nc2c(c(=O)[nH]1)N(C=O)C(CNc1ccc(C(=O)N[C@@H](CCC(=O)O)C(=O)O)cc1)CN2 (stereo partly shown) [LEU, leucovorin] | 1.27 | 1 | 1.16 | 1.05 | 0.99 | 0.84 | 0.95 | – | – | – | – | – | – | – | – | – | – | – | –
NCCCNc1ccc(C(=O)NC(CCC(=O)O)C(=O)O)cc1 (stereo not shown) [compound 7] | 1.18 | 1.08 | 1.16 | 0.92 | 0.9 | 0.96 | 0.96 | – | – | – | – | – | – | – | – | – | – | – | –
CCCCCCOc1cccc(Cc2cnc(N)nc2N)c1 [compound 2] | – | – | – | – | – | 1.57 | 1.05 | 1.07 | 1.09 | 1.46 | 1.62 | 2.23 fold | – | – | – | – | – | – | –
CCCCCCOc1ccc(Cc2cnc(N)nc2N)cc1 [compound 1] | – | – | – | – | – | 1.1 | 0.9 | 0.83 | 0.86 | 1.17 | 0.77 | 1.33 fold | – | – | – | – | – | – | –
Nc1nc2cccc(-c3ccccc3)c2n1Cc1ccc(Cl)c(Cl)c1 [compound 3] | – | – | – | – | – | 1.2 | 0.87 | 1.2 | 1.19 | 1.04 | 0.75 | 0.91 fold | – | – | – | – | – | – | –
NCCOCCOCC(=O)Nc1nc2ncc(CNc3ccc(C(=O)NC(CCC(=O)O)C(=O)O)cc3)nc2c(=O)[nH]1 (stereo not shown) [compound 6] | 1.11 | 1.04 | 1.16 | 1.15 | 1.26 | 1.07 | 0.99 | – | – | – | – | – | – | – | – | – | – | – | –
Nc1nc2[nH]cc(CCc3ccc(C(=O)N[C@@H](CCC(=O)O)C(=O)O)cc3)c2c(=O)[nH]1 [PTX, pemetrexed] | – | – | – | – | – | – | – | – | – | – | – | – | 1.24 | 1.02 | 1.12 | 0.96 | 0.97 | 0.92 | 0.9
